Source: US9480754B2, “Phospholipid ether analogs as cancer-targeting drug vehicles” (Cellectar Biosciences, Inc., priority 2014, dated 2016)

Experiments:
[1] = test system: MDA-MB-468, NCI-H1299, NCI-H460, Capan-2, MiaPaCa-1, HT29, HCT116 and PC-3 cancer cell lines; experiment: Cell viability, panel of eight cancer cell lines; type: cell-based; settings: serial concentrations
Method: The cell lines were then measured for cell viability and reported as IC50 for each treatment.
In vivo, free paclitaxel is taken up by cancerous tumor cells at a much lower rate due to the non-specific nature of paclitaxel uptake.

MDA-MB-468 cells [2] = experiment: Annexin V/PI flow cytometry, MDA-MB-468; type: cell-based
Method: (§1) Debris was eliminated from this analysis.
MDA-MB-468 cells, were also treated with CLR conjugates (CLR1606 and CLR1607) for 72 hours and with geldanamycin (“GEL”) for 48 hours.
(§2) CLR conjugates appear to require a longer treatment period with cells to induce cell death.

MDA-MB-468 cells [3] = experiment: Annexin V/PI flow cytometry, MDA-MB-468; type: cell-based; settings: MDA-MB-468, 1 uM, 48 hrs
COLO 829 cells = experiment: Annexin V/PI flow cytometry, COLO 829; type: cell-based
Method: as §1
COLO 829 cells, a melanoma cell line, were treated with […] (CLR1606 and CLR1607) for 72 hrs and GEL for 48 hours.
as §2

PANC-1 cells = experiment: Annexin V/PI flow cytometry, PANC-1; type: cell-based; settings: table title 72 hours, GEL for 48 hours
Method: as §1
PANC-1 cells, a pancreatic cancer cell line, were treated with GEL conjugates (CLR1606 and CLR1607) for 72 hrs and GEL for 48 hours.

22RV1 cells = experiment: Annexin V/PI flow cytometry, 22RV1; type: cell-based; settings: table title 72 hours, GEL for 48 hours
Method: as §1
22RV1 cells, a prostate cancer cell line, were treated with GEL conjugates (CLR1606 and CLR1607) for 72 hrs and GEL for 48 hours. Cell viability was 20.3%, 21.3%, 16.0%, 21.9%, 15.7%, 19.4%, and 28.1% after treatment with no drug, 1 μM CLR1606, 10 μM CLR1606, 1 μM CLR1607, 10 μM CLR1607, 100 nM GEL, and 1 μM GEL, respectively.

PC-3 cells = experiment: 125I-CLR1404 uptake after lipid raft disruption with filipin III; type: cell-based; settings: PC-3 cells pretreated with 2 μg/ml filipin III 15 min, then 125I-CLR1404 1 h; vs untreated control cells
Method: PC-3 cells were pretreated with either 2 μg/ml filipin III or vehicle for 15 min, then washed and incubated with 2 μCi of ^125I-CLR1404 for 1 h. The media was removed and the cells were washed with phosphate buffered saline containing 0.1% bovine serum albumin, trypsinized, then split into two samples for determination of cell number by DNA content (A280 compared to a cell line specific standard curve) and counts per minute using a Gamma Counter (Perkin Elmer).
This supports the hypothesis that CLR1404 uses lipid rafts as portals of entry into cancer cells.

C6 glioma = experiment: Rat C6 glioma model, tissue distribution of NM404; type: in vivo; settings: C6 glioma-bearing rats, 24 h after tail vein injection
Method: Materials and Methods: All animals were housed and handled in accordance with the University of Wisconsin Research Animal Resources Center guidelines. Rat C6 glioma cells were propagated in DMEM medium (Life Technologies, Gaithersburg, Md.) supplemented with 10% heat-inactivated FBS (BioWhittaker, Walkersville, Md.), 100 U/ml penicillin G, […] streptomycin, and 0.01 M HEPES (Life Technologies, Gaithersburg, Md.). Intracranial tumor implantation was performed as described previously. Cohen J D, et al., Intracranial C6 glioma model in adult Wistar-Furth rats. J Neuro Oncol 1990 8(1):95-6. Briefly, 1×10^6 C6 cells were resuspended in […] 1.2% methylcellulose and injected into the frontal lobes of anesthetized female Wistar rats (Harlan, Indianapolis, Ind.). Sham-operated animals received intracranial injections of an equal volume of methylcellulose without tumor cells.
Imaging Studies: Ten days after implantation, the presence of intracranial tumors was confirmed with MRI. […]
NM404 [18-(4-iodophenyl)-octadecylphosphocholine] […] In addition, normal brain, blood, kidney, liver, spleen, thyroid, and tumor tissues were weighed, and radioactivity counted in a gamma counter. The tissue distribution of radioactivity was then correlated to brain histology.

[4] = test system: cancer cell lines (renal, ovarian, pancreatic, melanoma, prostate) vs normal human skin fibroblast; experiment: CLR1501 uptake in cancer cell lines vs normal fibroblasts (confocal microscopy); type: cell-based; settings: 24 hours, 5 or 7.5 μM, in vitro
Text: Human cancer cell lines were purchased from the American Type Culture Collection (ATCC). They included the following: Caki-2 (renal; clear cell carcinoma), HCT-116 (colorectal carcinoma); MES-SA/Dx5 (uterine sarcoma) [all maintained in McCoy's 5a medium supplemented with 10% fetal bovine serum (FBS)], Ovcar-3 (ovarian adenocarcinoma) [maintained in RPMI medium supplemented with 20% FBS], U87-MG (glioma) [maintained in minimum essential medium supplemented with 10% FBS], Mia Paca-2 (pancreatic carcinoma) (maintained in Dulbecco's modified Eagle's medium supplemented with 10% FBS), PC-3 (prostate carcinoma) (maintained in F-12K medium supplemented with 10% FBS), MDA-MB-231 (triple-negative mammary gland adenocarcinoma) (maintained in Leibovitz's medium supplemented with 10% FBS), and A549 (non-small cell lung carcinoma) (maintained in F-12 medium supplemented with 10% FBS). Normal human skin fibroblasts were purchased from ATCC and grown in Fibroblast Basal Medium PCS-201-030 supplemented with serum-free kit (Fibroblast Growth Kit-Serum-Free PCS-201-040). […]
All cells were maintained at 37° C. in appropriate medium supplemented with 10% FBS and 5% CO2. […] The emission signal of CLR1501 was detected using Alexa Fluor 488 filters (ex/em 480/520 nm). […]

[5] = test system: human glioblastoma stemlike cells and serum-cultured human glioblastoma cells; settings: Weichert 2014, FIG. 2; cited from earlier work
[6] = MDA-MB-468, 1 uM, 72 hrs (Table 3)

In the case of `CC(=O)O[C@H]1C(=O)[C@@]2(C)[C@H]([C@H](OC(=O)c3ccccc3)[C@]3(O)C[C@H](OC(=O)[C@H](OC(=O)OCCCCC(=O)Nc4ccc(CCCCCCCCCCCCCCCCCCOP(=O)([O-])OCC[N+](C)(C)C)cc4)[C@@H](NC(=O)c4ccccc4)c4ccccc4)C(C)=C1C3(C)C)[C@]1(OC(C)=O)CO[C@@H]1C[C@@H]2O` [CLR1603], the “ability to reduce cancer cell line viability” value [1] is reported as “capable of reducing cell viability”, the Live (MDA-MB-468 cells [2]; [6]) is reported as 22.2 % of total cells and the Necrotic (MDA-MB-468 cells [2]; [6]) is reported as 22 % of total cells. The Live (MDA-MB-468 cells [2]; MDA-MB-468, 5 uM, 72 hrs) was 19.7 % of total cells, the “Early Apoptotic” value (MDA-MB-468 cells [3]) was 1.4 % of total cells and the Live (MDA-MB-468 cells [3]) was 81.4 % of total cells.

For `CC(=O)O[C@H]1C(=O)[C@@]2(C)[C@H]([C@H](OC(=O)c3ccccc3)[C@]3(O)C[C@H](OC(=O)[C@H](OC(=O)CCCC(=O)Nc4ccc(CCCCCCCCCCCCCCCCCCOP(=O)([O-])OCC[N+](C)(C)C)cc4)[C@@H](NC(=O)c4ccccc4)c4ccccc4)C(C)=C1C3(C)C)[C@]1(OC(C)=O)CO[C@@H]1C[C@@H]2O` [CLR1601], the “ability to reduce cancer cell line viability” value [1] was “capable of reducing cell viability”, the “Early Apoptotic” value (MDA-MB-468 cells [2]; [6]) was 9.83 % of total cells and the Live (MDA-MB-468 cells [2]; [6]) was 17 % of total cells. For the same compound, the Live (MDA-MB-468 cells [2]; MDA-MB-468, 5 uM, 72 hrs) was 17.8 % of total cells, the “Late Apoptotic” value (MDA-MB-468 cells [3]) was 6 % of total cells and the Live (MDA-MB-468 cells [3]) was 79.4 % of total cells.

With `COC1=C2C[C@@H](C)C[C@H](OC)[C@H](O)[C@@H](C)/C=C(\C)[C@H](OC(N)=O)[C@@H](OC)/C=C\C=C(/C)C(=O)NC(=CC1=O)C2=O` [GEL, geldanamycin] the Live (MDA-MB-468 cells [2]; MDA-MB-468, GEL 1 uM, table title 72 hours, text: geldanamycin for 48 hours) was 26.2 % of total cells, the Live (COLO 829 cells; COLO 829, 100 nM, 48 hrs (Table 9)) was 36.1 % of total cells and the Live (COLO 829 cells; COLO 829, 1 uM, 48 hrs (Table 9)) was 24.6 % of total cells. The Live (COLO 829 cells; COLO 829, GEL 100 nM, Table 5 title 72 hours, GEL for 48 hours) was 32.4 % of total cells, the Live (COLO 829 cells; COLO 829, GEL 1 uM, Table 5 title 72 hours, GEL for 48 hours) was 18.6 % of total cells and the Live (PANC-1 cells; PANC-1, GEL 100 nM) was 23.3 % of total cells. For the same compound, the Live (PANC-1 cells; PANC-1, GEL 1 uM) was 18.9 % of total cells, the Live (22RV1 cells; 22RV1, GEL 100 nM) was 19.4 % of total cells and the Live (22RV1 cells; 22RV1, GEL 1 uM) was 28.1 % of total cells.

For `C[N+](C)(C)CCOP(=O)([O-])OCCCCCCCCCCCCCCCCCCc1ccc(I)cc1` [NM404, 18-(4-iodophenyl)-octadecylphosphocholine], the “reduction of uptake when lipid rafts are disrupted” value (PC-3 cells) was roughly 40% and the “Tumor to brain ratio (% injected dose/g)” value (C6 glioma) was 10.5.

With `CC(=O)O[C@H]1C(=O)[C@]2(C)[C@@H](OC(=O)NCCCC(=O)Nc3ccc(CCCCCCCCCCCCCCCCCCOP(=O)([O-])OCC[N+](C)(C)C)cc3)C[C@H]3OC[C@@]3(OC(C)=O)[C@H]2[C@H](OC(=O)c2ccccc2)[C@]2(O)C[C@H](OC(=O)[C@H](O)[C@@H](NC(=O)c3ccccc3)c3ccccc3)C(C)=C1C2(C)C` [CLR1602] the “ability to reduce cancer cell line viability” value [1] was “not capable of significantly reducing cancer cell line viability”.

For `C[N+](C)(C)CCOP(=O)([O-])OCCCCCCCCCCCCCCCCCCc1ccc(C2=C3C=CC=[N+]3[B-](F)(F)n3cccc32)cc1` [CLR1501], the “preferential uptake in cancer cell lines compared to normal fibroblasts” value [4] is listed as “five to nine-fold” and the “uptake compared to normal human astrocytes and fetal human neural stem cells” value [5] is listed as “enhanced uptake”.
